Measured values published in patent US8404643B2, “Metastin derivatives and use thereof” (priority 2005, dated 2013).
Square brackets hold non-standard residues; d marks the D form. Peptide text beside a SMILES is read from it. * marks the point of attachment. Pro(trans-4-F) = O=C(O)[C@@H]1C[C@@H](F)CN1; pY = N[C@@H](Cc1ccc(OP(=O)(O)O)cc1)C(=O)O; Phe(3-F) = N[C@@H](Cc1cccc(F)c1)C(=O)O; Phe(2-F) = N[C@@H](Cc1ccccc1F)C(=O)O; Arg(Me) = CNC(=N)NCCC[C@H](N)C(=O)O; Hyp = O=C(O)[C@@H]1C[C@@H](O)CN1; Orn = NCCC[C@H](N)C(=O)O; Dab = NCC[C@H](N)C(=O)O; Aib = CC(C)(N)C(=O)O; Glycolyl = O=C(CO)*; azaGly = NNC(=O)O

Molecular target: T1, hOT7T175 (Homo sapiens, UniProt Q969F8)
T1 construct: expressed in transfected cells
Experiment: Assay for intracellular Ca ion level-increasing activity using FLIPR
Type: cell-based
Settings: hOT7T175/CHO cells, relative to Metastin (1-54)
Procedure: In accordance with the method described in JPA 2000-312590, the intracellular Ca ion level-increasing activity was measured using FLIPR.
The stable expression cell line hOT7T175 was obtained by transfection of the expression plasmid pAK-rOT175 for animal cells into CHO/dhfr^− cells, using CellPhect Transfection Kit (Amersham Pharmacia Biotech, Inc.). First, 240 μL of Buffer A (attached to CellPhect Transfection Kit) was added to 9.6 μg of plasmid DNA dissolved in 240 μL of distilled water followed by stirring. After the mixture was settled for 10 minutes, 480 μL of Buffer B (attached to CellPhect Transfection Kit) was added to the mixture, which was vigorously stirred to form liposomes containing the DNA. Then, 4×10^5 CHO/dhfr^− cells (obtained from ATCC) were inoculated on a 60 mm Petri dish. After culturing the cells in Ham's F-12 medium (Nissui Seiyaku Co., Ltd.) supplemented with 10% fetal bovine serum (BIO WHITTAKER, Inc.) at 37° C. for 2 days in 5% carbon dioxide gas, […] of the liposomes were dropwise added to the cells on the Petri dish. After culturing the cells at 37° C. for 6 hours in 5% carbon dioxide gas, the cells were washed twice with serum-free Ham's F-12 medium and 3 mL of 15% glycerol was added to the cells on the Petri dish followed by treatment for 2 minutes. The cells were again washed twice with serum-free Ham's F-12 medium followed by incubation in Ham's F-12 medium supplemented with 10% fetal bovine serum at 37° C. for 15 hours in 5% carbon dioxide gas. The cells were dispersed by trypsin treatment to recover from the Petri dish. The recovered cells were inoculated on a 6-well plate in 1.25×10^4 cells/well and incubation was initiated at 37° C. in Dulbecco's modified Eagle medium (DMEM) medium (Nissui Seiyaku Co., Ltd.) containing 10% dialyzed fetal bovine serum (JRH BIOSCIENCES, Inc.) in 5% carbon dioxide gas. The plasmid-transfected CHO transformants grew in the medium but the non-transfected cells gradually died, accordingly the medium was exchanged on Days 1 and 2 after the initiation of incubation to remove the cells died. Approximately 20 colonies of the CHO transformants that kept growing on Days 8 to 10 after the incubation were isolated. From the cells in these colonies, cells showing high reactivity with the ligand peptide metastin (hereinafter merely referred to as hOT7T175/CHO) were selected to provide for the following experiment.
The intracellular Ca ion level-increasing activity of the synthetic peptide in hOT7T175/CHO was determined using FLIPR (Molecular Devices, Inc.).
hOT7T175/CHO was subcultured in DMEM supplemented with 10% dialyzed fetal bovine serum (hereinafter abbreviated as dFBS) (hereinafter referred to as 10% dFBS/DMEM) and provided for the experiment. The hOT7T175/CHO was suspended in 10% dFBS-DMEM in 15×10^4 cells/ml. The suspension was inoculated on a 96-well plate for FLIPR (Black Plate Clear Bottom, Coster, Inc.) at 200 μl/well (3.0×10^4 cells/200 μL/well), followed by incubation at 37° C. overnight in a 5% CO2 incubator (hereinafter referred to as the cell plate). Then, 21 ml of HANKS/HBSS (9.8 g of HANKS, 0.35 g of sodium hydrogencarbonate, 20 ml of 1M HEPES; after adjusting the pH to 7.4 with 1N sodium hydroxide, the mixture was sterilized by filtration), 210 μl of 250 mM Probenecid and 210 μl of fetal bovine serum (FBS) (HANKS/HBSS-Probenecid-FBS) were mixed.
Furthermore, 2 vials of Fluo3-AM (50 μg/vial) were dissolved in 21 μL of dimethylsulfoxide and 21 μL of 20% Pluronic acid. The resulting solution was added to and mixed with 10 ml of the HANKS/HBSS-Probenecid-FBS described above. After the culture medium was removed, the mixture was dispensed onto the cell plate in 100 μl each/well, followed by incubation at 37° C. for an hour in a 5% CO2 incubator (pigment loading). The peptide was dissolved in dimethylsulfoxide in 1×10^−3 M. The peptide solution was diluted with HANKS/HBSS containing 2.5 mM Probenecid, 0.2% BSA and 0.1% CHAPS. […]

T1 sequence (Q969F8 whole entry L364H): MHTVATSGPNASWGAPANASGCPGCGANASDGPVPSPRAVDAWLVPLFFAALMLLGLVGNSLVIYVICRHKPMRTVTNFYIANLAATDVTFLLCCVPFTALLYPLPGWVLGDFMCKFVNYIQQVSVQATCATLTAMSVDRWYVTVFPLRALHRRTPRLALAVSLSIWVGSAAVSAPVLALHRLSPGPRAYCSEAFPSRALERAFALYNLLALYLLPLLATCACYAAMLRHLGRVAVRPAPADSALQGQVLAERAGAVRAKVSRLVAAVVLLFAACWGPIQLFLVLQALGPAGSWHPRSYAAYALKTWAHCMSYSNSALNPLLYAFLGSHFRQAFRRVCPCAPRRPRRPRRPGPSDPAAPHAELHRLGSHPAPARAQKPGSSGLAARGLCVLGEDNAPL

| Specific Activity: intracellular Ca ion level-increasing activity [specific activity to Metastin (1-54)] | Molecule |
| --- | --- |
| 1.5 | CNC(=N)NCCC[C@H](NC(=O)[C@H](CC(C)C)NC(=O)NNC(=O)[C@H](Cc1ccccc1)NC(=O)[C@@H](NC(=O)[C@H](CC(N)=O)NC(=O)[C@@H]1C[C@@H](O)CN1C(=O)[C@@H](Cc1ccc(O)cc1)NC(=O)CO)[C@@H](C)O)C(=O)N[C@@H](Cc1c[nH]c2ccccc12)C(N)=O [Compound No. 776, Glycoloyl-D-Tyr-Hyp-Asn-Thr-Phe-AzaGly-Leu-Arg(Me)-Trp-NH2] (Glycolyl-[dY][Hyp]NTF[azaGly]L[Arg(Me)]W-NH2) |
| 3.3 | CNC(=N)NCCC[C@H](NC(=O)[C@H](CC(C)C)NC(=O)NNC(=O)[C@H](Cc1cccc(F)c1)NC(=O)[C@@H](NC(=O)[C@H](CC(N)=O)NC(=O)C(C)(C)NC(=O)[C@@H](Cc1ccc(O)cc1)NC(C)=O)[C@@H](C)O)C(=O)N[C@@H](Cc1c[nH]c2ccccc12)C(N)=O [Compound No. 786, Ac-D-Tyr-Aib-Asn-Thr-Phe(3F)-AzaGly-Leu-Arg(Me)-Trp-NH2] (Ac-[dY][Aib]NT[Phe(3-F)][azaGly]L[Arg(Me)]W-NH2) |
| 0.9 | CNC(=N)NCCC[C@H](NC(=O)[C@H](CC(C)C)NC(=O)NNC(=O)[C@H](Cc1ccccc1)NC(=O)[C@H](NC(=O)[C@H](CC(N)=O)NC(=O)[C@@H]1C[C@@H](O)CN1C(=O)[C@@H](Cc1ccc(O)cc1)NC(C)=O)[C@H](C)O)C(=O)N[C@@H](Cc1c[nH]c2ccccc12)C(N)=O [Compound No. 846, Ac-D-Tyr-Hyp-Asn-D-Thr-Phe-AzaGly-Leu-Arg(Me)-Trp-NH2] (Ac-[dY][Hyp]N[dT]F[azaGly]L[Arg(Me)]W-NH2) |
| 1.3 | CNC(=N)NCCC[C@H](NC(=O)[C@H](CC(C)C)NC(=O)NNC(=O)[C@H](Cc1ccccc1)NC(=O)[C@@H](NC(=O)[C@H](CC(N)=O)NC(=O)[C@@H](NC(=O)[C@@H](Cc1ccc(O)cc1)NC(C)=O)[C@@H](C)O)[C@@H](C)O)C(=O)N[C@@H](Cc1c[nH]c2ccccc12)C(N)=O [Compound No. 772, Ac-D-Tyr-Thr-Asn-Thr-Phe-AzaGly-Leu-Arg(Me)-Trp-NH2] (Ac-[dY]TNTF[azaGly]L[Arg(Me)]W-NH2) |
| 3.5 | CNC(=N)NCCC[C@H](NC(=O)[C@H](CC(C)C)NC(=O)NNC(=O)[C@H](Cc1ccccc1F)NC(=O)[C@@H](NC(=O)[C@H](CC(N)=O)NC(=O)[C@H](CCC(=O)O)NC(=O)[C@@H](Cc1ccc(O)cc1)NC(C)=O)[C@@H](C)O)C(=O)N[C@@H](Cc1c[nH]c2ccccc12)C(N)=O [Compound No. 755, Ac-D-Tyr-Glu-Asn-Thr-Phe(2F)-AzaGly-Leu-Arg(Me)-Trp-NH2] (Ac-[dY]ENT[Phe(2-F)][azaGly]L[Arg(Me)]W-NH2) |
| 0.7 | CNC(=N)NCCC[C@H](NC(=O)[C@H](CC(C)C)NC(=O)NNC(=O)[C@H](Cc1ccccc1)NC(=O)[C@@H](NC(=O)[C@H](CC(N)=O)NC(=O)[C@@H]1C[C@@H](F)CN1C(=O)[C@@H](Cc1ccc(O)cc1)NC(C)=O)[C@@H](C)O)C(=O)N[C@@H](Cc1c[nH]c2ccccc12)C(N)=O [Compound No. 897, Ac-D-Tyr-Pro(4F)-Asn-Thr-Phe-AzaGly-Leu-Arg(Me)-Trp-NH2] (Ac-[dY][Pro(trans-4-F)]NTF[azaGly]L[Arg(Me)]W-NH2) |
| 2.0 | CNC(=N)NCCC[C@H](NC(=O)[C@H](CC(C)C)NC(=O)NNC(=O)[C@H](Cc1ccccc1)NC(=O)[C@@H](NC(=O)[C@H](CC(N)=O)NC(=O)C(CC1CCNCC1)NC(=O)[C@@H](Cc1ccc(O)cc1)NC(C)=O)[C@@H](C)O)C(=O)N[C@@H](Cc1c[nH]c2ccccc12)C(N)=O (mixture of isomers) [Compound No. 774, Ac-D-Tyr-DL-Ala(Pip)-Asn-Thr-Phe-AzaGly-Leu-Arg(Me)-Trp-NH2] |
| 1.9 | CNC(=N)NCCC[C@H](NC(=O)[C@H](CC(C)C)NC(=O)NNC(=O)[C@H](Cc1ccccc1)NC(=O)[C@@H](NC(=O)[C@H](CC(N)=O)NC(=O)[C@H](CCCN)NC(=O)[C@@H](Cc1ccc(O)cc1)NC(C)=O)[C@@H](C)O)C(=O)N[C@@H](Cc1c[nH]c2ccccc12)C(N)=O [Compound No. 771, Ac-D-Tyr-Orn-Asn-Thr-Phe-AzaGly-Leu-Arg(Me)-Trp-NH2] (Ac-[dY][Orn]NTF[azaGly]L[Arg(Me)]W-NH2) |
| 6.4 | CNC(=N)NCCC[C@H](NC(=O)[C@H](CC(C)C)NC(=O)NNC(=O)[C@H](Cc1ccccc1F)NC(=O)[C@@H](NC(=O)[C@H](CC(N)=O)NC(=O)[C@@H]1C[C@@H](O)CN1C(=O)[C@@H](Cc1ccc(O)cc1)NC(C)=O)[C@@H](C)O)C(=O)N[C@@H](Cc1c[nH]c2ccccc12)C(N)=O [Compound No. 763, Ac-D-Tyr-Hyp-Asn-Thr-Phe(2F)-AzaGly-Leu-Arg(Me)-Trp-NH2] (Ac-[dY][Hyp]NT[Phe(2-F)][azaGly]L[Arg(Me)]W-NH2) |
| 1.1 | CNC(=N)NCCC[C@H](NC(=O)[C@H](CC(C)C)NC(=O)NNC(=O)[C@H](Cc1ccccc1)NC(=O)[C@@H](NC(=O)[C@H](CCN)NC(=O)[C@@H](Cc1c[nH]c2ccccc12)NC(=O)[C@@H](Cc1ccc(O)cc1)NC(C)=O)[C@@H](C)O)C(=O)N[C@@H](Cc1c[nH]c2ccccc12)C(N)=O [Compound No. 740, Ac-D-Tyr-D-Trp-Dab-Thr-Phe-AzaGly-Leu-Arg(Me)-Trp-NH2] (Ac-[dY][dW][Dab]TF[azaGly]L[Arg(Me)]W-NH2) |
| 3.0 | CNC(=N)NCCC[C@H](NC(=O)[C@H](CC(C)C)NC(=O)NNC(=O)[C@H](Cc1ccccc1)NC(=O)[C@@H](NC(=O)[C@H](CC(N)=O)NC(=O)[C@H](CCCCN)NC(=O)[C@@H](Cc1ccc(O)cc1)NC(C)=O)[C@@H](C)O)C(=O)N[C@@H](Cc1c[nH]c2ccccc12)C(N)=O [Compound No. 745, Ac-D-Tyr-Lys-Asn-Thr-Phe-AzaGly-Leu-Arg(Me)-Trp-NH2] (Ac-[dY]KNTF[azaGly]L[Arg(Me)]W-NH2) |
| 1.6 | CNC(=N)NCCC[C@H](NC(=O)[C@H](CC(C)C)NC(=O)NNC(=O)[C@H](Cc1ccccc1)NC(=O)[C@@H](NC(=O)[C@H](CC(N)=O)NC(=O)[C@@H](Cc1cnc[nH]1)NC(=O)[C@@H](Cc1ccc(O)cc1)NC(C)=O)[C@@H](C)O)C(=O)N[C@@H](Cc1c[nH]c2ccccc12)C(N)=O [Compound No. 739, Ac-D-Tyr-D-His-Asn-Thr-Phe-AzaGly-Leu-Arg(Me)-Trp-NH2] (Ac-[dY][dH]NTF[azaGly]L[Arg(Me)]W-NH2) |

| Molecule | Specific Activity: intracellular Ca ion level-increasing activity [specific activity to Metastin (1-54)] |
| --- | --- |
| Ac-D-Tyr-Tyr(PO3H2)-Asn-Thr-Phe-AzaGly-Leu-Arg(Me)-Trp-NH2 (Ac-[dY][pY]NTF[azaGly]L[Arg(Me)]W-NH2; SMILES CNC(=N)NCCC[C@H](NC(=O)[C@H](CC(C)C)NC(=O)NNC(=O)[C@H](Cc1ccccc1)NC(=O)[C@@H](NC(=O)[C@H](CC(N)=O)NC(=O)[C@H](Cc1ccc(OP(=O)(O)O)cc1)NC(=O)[C@@H](Cc1ccc(O)cc1)NC(C)=O)[C@@H](C)O)C(=O)N[C@@H](Cc1c[nH]c2ccccc12)C(N)=O) [Compound No. 775] | 1.3 |
